In patent US9650399B2, “Salicylic acid derivatives, pharmaceutically acceptable salt thereof, composition thereof and method of use thereof” (The Governing Council of the University of Toronto, priority 2012, dated 2017):

What was measured:
[1] = test system: ErbB2 mammary breast tumour cell lines (NIC); experiment: CyQuant proliferation assay in ErbB2 mammary tumour cell lines; assay type: cell-based
Procedure: Compounds were assessed for inhibition of cell proliferation in ErbB2 mammary breast tumour cell lines (NIC) containing the activated form of ErbB2 using a CyQuant Assay. […] Three individual Mouse Mammary Tumour Virus ErbB2 mammary tumour cell lines (NIC) were resuspended in 10% FBS plus single quots DMEM media to a final concentration of 40,000 cells per 1 mL. Cells were plated at a concentration of 4,000 cells in 100 μL of media per well on 96 well NUNC plates and incubated for 24 h hours at 37° C. plus 5% CO2. […] Each condition was repeated in quadruplicate. At predetermined time points; at treatment, 24 h, 48 h and 72 h post treatment, the media was removed from the cells and the plates were stored at −80° C. wrapped in tin foil. When needed, all the plates were thawed to room temperature. Invitrogen's CyQuant Cell Proliferation Assay kit was used to measure DNA content. Following their directions, the cell lysis buffer was diluted 1:20 with water and then the CyQuant GR solution 1:400 in the lysis buffer. […] The plates were then incubated for 2-5 minutes protected from light, then read on a fluorescence microplate reader with filters for 480 nm excitation and 520 nm emission maxima. Quadruplicates were averaged and the error bars represent the S.E.M. In some cases the absorbance was normalized to the DMSO control.

[2] = blood brain barrier permeability: plasma and brain concentrations by LC-MS; assay type: in vivo, mice; settings: for concentration at 30 min: mouse, plasma, intraperitoneal
Procedure: Compounds 31 and 32 were given to three mice at 10 mg/kg BID via IP for five days and blood was collected at two time points (30 min. and 300 min.) for all mice. Plasma was separated from blood by centrifugation and stored at −20° C. until analysis. Brain was also collected from one mouse at each dose. Concentrations of compounds were determined using LC-MS.

[3] = test system: STAT3 phosphorylation (Y705); experiment: Western blot of IL-6 stimulated pSTAT3 in pancreatic cancer cells; assay type: cell-based; settings: 1 hr pretreatment, IL-6 50 ng/mL 15 min, Pa03C
Procedure: Low passage patient-derived pancreatic cancer lines (Pa03C and Panc10.05) were plated in 6-well plates (2×10^5 and 8×10^4, respectively) and allowed to attach overnight. STAT3 inhibitors were added for 1 hr prior to IL-6 stimulation (50 ng/mL, 15 min). STAT3 inhibitors were present during IL-6 stimulation. Cells were harvested and lysed for Western blotting. phospho-Specific STAT3 antibody (Y705) was used to look at STAT3 phosphorylation and total STAT3 antibody was used to normalize activation of STAT3. Antibodies were from Cell Signaling and used at a 1:1000 dilution.

[4] = test system: patient-derived pancreatic cancer line (Pa03C); experiment: 3D culture cytotoxicity (Alamar Blue) with and without cancer-associated fibroblasts; assay type: cell-based; settings: presence and absence of CAFs, Alamar Blue Day 11
Procedure: FIG. 11 illustrates the effects of STAT3 inhibitor 31 on low passage patient-derived pancreatic cancer line (Pa03C) plated in a 96-well plate coated with 1% Noble Agar in media containing 3% Matrigel, with and without cancer-associated fibroblasts. The ratio of the tumor to CAFs is 1:4. Tumor spheres begin to form around Day 3, and STAT3 inhibitor 31 added at Day 4 and 8. Cytotoxicity is assessed by fluorescence using Alamar Blue assay on Day 11.

[5] = test system: multiple myeloma tumor cell lines; experiment: MTT cytotoxicity in multiple myeloma cell lines; assay type: cell-based; settings: 12 of 15 multiple myeloma cell lines, read-out: ED50 (the source's name)
Procedure: For assessing MM cell viability, HMCL cells were seeded in 96-well plates in triplicate at a density of 20,000 cells/well and incubated with increasing concentrations of 16i and 21h or DMSO control and cell viability assessed by MTT (3-(4,5-dimethylthiazol)-2,5-diphenyl tetrazolium) colorimetric analysis. Results are reported at FIG. 12.

CN(CC(=O)N(Cc1ccc(C2CCCCC2)cc1)c1ccc(C(=O)O)cc1)S(=O)(=O)c1c(F)c(F)c(F)c(F)c1F [Compound 31, 4-(N-(4-cyclohexylbenzyl)-2-(2,3,4,5,6-pentafluoro-N-methylphenylsulfonamido)acetamido)benzoic acid]
cell proliferation in 2071 NIC cells ([1]; 5 μM, CyQuant): completely inhibiting cell proliferation
potency in comparison with BP1-102 ([1]; NIC cell lines 2071, 8518 and 9822): more potent
change of plasma concentration between 30 min. and 300 min ([2]; 10 mg/kg BID IP): did not change significantly
concentration in the brain ([2]; 10 mg/kg dosing (FIG. 18)): up to 300 nM
concentration in the brain ([2]; 10 mg/kg dosing, IP BID): about 0.3 μM
compound in plasma after 5 hr ([2]; both doses (10 and 25 mg/kg)): no compound was detected
concentration in the brain ([2]; dosing 10 mg/kg and 25 mg/kg, LCMS (FIG. 17)): up to 0.7 μM
concentration at 30 min ([2]; 10 mg/kg): 240 nM
concentration at 30 min ([2]; 25 mg/kg): 580 nM
de novo phosphorylation of STAT3 [3]: potently inhibits de novo phosphorylation of STAT3 protein
killing of tumor cells grown in 3D cultures [4]: effectively kills tumor cells
EC50 [5]: 2 to 6 µM
